Biological target: SHP2 (Homo sapiens (Human), UniProt Q06124)
Test: SHP2 Allosteric Inhibition Assay (DiFMUP substrate, bisphos-IRS1 peptide activation)
Format: biochemical
Conditions: 0.5 μM bisphos-IRS1 peptide, 100 uM DiFMUP, room temperature
Procedure: At the basal state, SHP2 is auto-inhibited and access of substrates to the catalytic site is blocked by the […] interactions between the SH2 domains and the PTP domain. When bis-tyrosyl-phosphorylated peptides bind to SH2 domain of SHP2, the PTP domain becomes available for substrate recognition and reaction catalysis and SHP2 is allosterically activated. SHP2 catalytic activity can be measured using a fluorogenic artificial substrate DiFMUP.
The phosphatase reactions were carried out at room temperature in 384-well black polystyrene plates (Greiner Bio-One, Cat #784076) using assay buffers containing 60 mM HEPES, pH 7.2, 75 mM NaCl, 75 mM KCl, 1 mM EDTA, 0.05% P-20, and 5 mM DTT.
0.33 nM of […] was co-incubated with of 0.5 μM of bisphos-IRS 1 peptide (sequence: H2N-LN(pY)IDLDLV(dPEG8)LST(pY)ASINFQK-amide) and various concentrations of compounds for 30-60 min at room temperature. Then the reaction was initiated by addition of the surrogate substrate DiFMUP (Invitrogen, Cat #D6567, 100 uM final).
The real-time conversion of DiFMUP to DiFMU (6,8-difluoro-7-hydroxyl-4-methyl-coumarin) was measured every 5 min for 30 min using a microplate reader (CLARIOstar, BMG Labtech) with excitation and emission wavelengths of 340 nm and 450 nm, respectively. Initial reaction rates were determined by linear fitting of the data and the inhibitor dose response curves were analyzed using normalized IC50 regression curve fitting with control based normalization.

Row | IC50 [nM] | SMILES
1 | 6 | C[C@@H]1OCC2(CCN(c3ncc(Sc4ccnc5c4OC[C@@H]4C[C@H](O)CN54)nc3CO)CC2)[C@@H]1N [Compound 18, (6aS,8S)-4-((5-((3S,4S)-4-amino-3-methyl-2-oxa-8-azaspiro[4.5]decan-8-yl)-6-(hydroxymethyl)pyrazin-2-yl)thio)-6a,7,8,9-tetrahydro-6H-pyrido[3,2-b]pyrrolo[1,2-d][1,4] oxazin-8-ol]
2 | 8 | C[C@@H]1OCC2(CCN(c3ncc(Sc4ccnc5c4OC[C@@H]4C[C@@H](O)CN54)nc3CO)CC2)[C@@H]1N [Compound 19, (6aS,8R)-4-((5-((3S,4S)-4-amino-3-methyl-2-oxa-8-azaspiro[4.5]decan-8-yl)-6-(hydroxymethyl)pyrazin-2-yl)thio)-6a,7,8,9-tetrahydro-6H-pyrido[3,2-b]pyrrolo[1,2-d][1,4]oxazin-8-ol]
3 | 12 | C[C@@H]1OCC2(CCN(c3ncc(Sc4ccnc5c4OC[C@@H]4C[C@H](O[C@@H]6CCOC6)CN54)nc3CO)CC2)[C@@H]1N [Compound 28, (3-((3S,4S)-4-amino-3-methyl-2-oxa-8-azaspiro[4.5]decan-8-yl)-6-(((6aS,8S)-8-(((R)-tetrahydrofuran-3-yl)oxy)-6a,7,8,9-tetrahydro-6H-pyrido[3,2-b]pyrrolo[1,2-d][1,4]oxazin-4-yl)thio)pyrazin-2-yl)methanol]

More lines, now with the values behind:

Row | SMILES | IC50 [nM]
4 | C[C@@H]1OCC2(CCN(c3ncc(Sc4ccnc5c4OC[C@@H]4C[C@H](F)CN54)nc3CO)CC2)[C@@H]1N [Compound 14, (3-((3S,4S)-4-amino-3-methyl-2-oxa-8-azaspiro[4.5]decan-8-yl)-6-(((6aS,8S)-8-fluoro-6a,7,8,9-tetrahydro-6H-pyrido[3,2-b]pyrrolo[1,2-d] [1,4]oxazin-4-yl)thio)pyrazin-2-yl)methanol] | 13
5 | C[C@@H]1OCC2(CCN(c3ncc(Sc4ccnc5c4OC[C@@H]4C[C@@H](F)CN54)nc3CO)CC2)[C@@H]1N [Compound 15, (3-((3S,4S)-4-amino-3-methyl-2-oxa-8-azaspiro[4.5]decan-8-yl)-6-(((6aS,8R)-8-fluoro-6a,7,8,9-tetrahydro-6H-pyrido[3,2-b]pyrrolo[1,2-d] [1,4]oxazin-4-yl)thio)pyrazin-2-yl)methanol] | 5
6 | CO[C@H]1C[C@H]2COc3c(Sc4cnc(N5CCC6(CC5)CO[C@@H](C)[C@H]6N)c(CO)n4)ccnc3N2C1 [Compound 16, (3-((3S,4S)-4-amino-3-methyl-2-oxa-8-azaspiro[4.5]decan-8-yl)-6-(((6aS,8S)-8-methoxy-6a,7,8,9-tetrahydro-6H-pyrido[3,2-b]pyrrolo[1,2-d][1,4]oxazin-4-yl)thio)pyrazin-2-yl)methanol] | 8

Reference: patent US11459340B2, “Tri-substituted heteroaryl derivatives as Src homology-2 phosphatase inhibitors” (Nikang Therapeutics, Inc., priority 2018, dated 2022)
